Assay results taken from PMC8964799, “Inhibition of triple negative breast cancer-associated inflammation, tumor growth and brain colonization by targeting monoacylglycerol lipase” (Scientific Reports, 2022).

Tests used:
[1] = molecular target: T1, human monoacylglycerol lipase (hMAGL) (Homo sapiens, UniProt Q99685); assay: target-based real-time 1H NMR (chemical shift perturbation, covalent adduct formation and reactivation; residence time); assay type: binding
T1 construct: gene MGLL; highly purified recombinant hMAGL
T1 sequence (Q99685 1-303): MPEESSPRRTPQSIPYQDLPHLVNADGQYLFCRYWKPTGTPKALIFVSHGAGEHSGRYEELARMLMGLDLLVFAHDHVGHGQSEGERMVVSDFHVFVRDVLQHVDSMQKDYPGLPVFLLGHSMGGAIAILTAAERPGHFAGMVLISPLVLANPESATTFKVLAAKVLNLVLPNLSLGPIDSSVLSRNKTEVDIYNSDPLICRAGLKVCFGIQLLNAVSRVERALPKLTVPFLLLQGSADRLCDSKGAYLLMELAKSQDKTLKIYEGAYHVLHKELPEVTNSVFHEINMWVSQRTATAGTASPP

[2] = molecular target: T1, human monoacylglycerol lipase (hMAGL); assay: target-based real-time 1H NMR (chemical shift perturbation, covalent adduct formation and reactivation; residence time […] h); IC50 on recombinant hMAGL also printed; assay type: biochemical; details: cited from earlier work

Substance	target-based real-time 1H NMR (chemical shift perturbation, covalent adduct form) [1] [h]	IC50 [2] [nM]
AM4301	1.4	
AM9928		8.9
